In patent US6989435B2, “Compounds and methods to inhibit or augment an inflammatory response” (Cambridge University Technical Services Ltd., priority 1997, dated 2006):

Experiments:
[1] = tested on: TGFβ1 induced THP-1 migration; assay: Trans-well THP-1 migration assay, TGFβ1 as non-chemokine control chemoattractant; assay type: cell-based, human
Procedure: Any method suitable for counting cells can be used, for example, counting with a hemocytometer, incubation of the cells with MTT (see above), or FACS analysis. A negative control assay is also performed, using TGF-β or another non-chemokine chemoattractant (e.g., IL1β or TNFα). To assess whether the agent is cytotoxic, the same concentrations of agent are incubated with THP-1 cells. Agents which 1) are not cytotoxic at levels which inhibit migration, 2) are ineffective at inhibiting the negative control-induced migration, and 3) reduce or inhibit chemokine-induced THP-1 migration, are agents which fall within the scope of the invention.
For this assay, THP-1 cells were maintained at a density of 4×10^5 cells per ml in RPMI-1640 supplemented with 10% fetal calf serum+20 μM 2-mercaptoethanol. Chemotaxis was induced in a 96-well disposable chemotaxis chamber fitted with a […] polycarbonate filter (PVP free, ChemoTX, Neuroprobe Inc., Cabin John). Twenty-nine μl of chemoattractant (recombinant human chemokine; 50 ng/ml, i.e., 5.9 nM) or control (100 ng/ml TGFβ) was added to the lower compartment of each well. The framed filter was aligned with the holes in the corner of the filter frame and placed over the wells. Five×10^4 THP-1 cells in 25 μl of RPMI-1640 culture media were added to the upper compartment. Peptides were dissolved in Milli Q water and then serially diluted in culture medium. […]
After incubation, the cells were gently removed from the top of the filter with a pipette, 20 μl of 20 mM EDTA in PBS was added into each top well, and the mixture was incubated for 20 minutes at 4° C. […] A standard curve was prepared to accurately quantify the number of THP-1 cells that had migrated. […] Absorbance of converted dye was measured at a wavelength of 595 nm using an ELISA plate reader. The number of cells that had migrated in each well was determined by interpolation of the standard curve.
To investigate the receptor specificity of peptide 3 inhibition, the ED50 was determined for peptide 3(1-12)[MCP-1] […]

[2] = tested on: cultured smooth muscle cells; assay: Co-mitogenic effect of MCP-1 with 0.5% fetal calf serum; assay type: cell-based; conditions: 100 μM peptide
Procedure: Many chemokines are co-mitogenic with low concentrations of FCS, e.g., 50 ng/ml MCP-1+0.5% FCS is a mitogen for smooth muscle cells. Assays well known to the art for determination of DNA synthesis induced by any known chemokine plus a low concentration (<5%) of FCS on suitable cells (e.g., smooth muscle cells) in the presence and absence of the agent may be employed to screen agents for such inhibitory activity. See Porreca et al., J. Vasc. Res., 34, 58 (1997), the disclosure of which is incorporated by reference herein.
Peptide 3(1-12)[MCP-1] […] MCP-1 has been reported to be a weak co-mitogen with 0.5% fetal calf serum for cultured smooth muscle cells. […] (SEQ ID NO:1) is an MCP-1 receptor antagonist. The observation that peptide 3(1-12) [MCP-1]

[3] = tested on: chemokine-induced THP-1 migration (MCP-1, MIP1α, IL8, SDF1α); assay: Trans-well THP-1 migration assay, across the chemokines tested; assay type: cell-based, human
Procedure: To determine whether an agent inhibits a chemokine-induced activity, such as macrophage recruitment, varying amounts of the agent are mixed with cells in the presence of a known chemoattractant. […] Chemokine (such as MCP-1, MIP1α, IL8 or SDF-1α), at a concentration known to cause significant migration of THP-1 cells in the trans-well migration assay, is placed in the lower compartment (FIG. 1). […] After incubation, the cells are gently removed from the top of the filter with a pipette, 20 μl of 20 mM EDTA in simple PBS is added into each top well, and incubated for 20 minutes at 4° C. The filter is carefully flushed with media using a gentle flow, and removed. […] The media is carefully aspirated from each well, and the converted dye is solubilized by 20 μl of DMSO. Absorbance of converted dye is measured at a wavelength of 595 nm using an ELISA plate reader. The number of migrated cells in each well is then determined by interpolation of the standard curve (see also Imai et al., J. Biol. Chem., 272, 15036 (1997)). […] The framed filter was aligned with the holes in the corner of the filter frame and placed over the wells. Five×10^4 THP-1 cells in 25 μl of RPMI-1640 culture media were added to the upper compartment. Peptides were dissolved in Milli Q water and then serially diluted in culture medium. In most cases, the serially diluted peptides were added to the upper compartment of the chemotaxis chamber. […] After incubation, the cells were gently removed from the top of the filter with a pipette, 20 μl of 20 mM EDTA in PBS was added into each top well, and the mixture was incubated for 20 minutes at 4° C. The filter was then carefully flushed with media using a gentle flow, and removed. […] The media was carefully aspirated from each well, and the converted dye was solubilized by 20 μl of DMSO. Absorbance of converted dye was measured at a wavelength of 595 nm using an ELISA plate reader. […] Representative chemokines included a beta-chemokine (“CC”), MIP-1α, and two alpha-chemokines (“CXC”), IL-8 and SDF-1α. […]

EICADPKQKWVQ [Peptide 3]
Extent of inhibition of THP-1 migration at 100 μM, TGFβ1 ([1]; Table 4(b), 100 μM peptide, n.s. = no statistically significant inhibition): n.s. | inhibition of TGF-beta induced THP-1 migration ([1]; even at 100 μM): did not significantly inhibit | effect on the co-mitogenic effect of MCP-1 for cultured smooth muscle cells [2]: completely abolished | inhibition of migration induced by any of the chemokines of either family ([3]; 100 μM, THP-1): > 99% | CC SPECIFICITY ([3]; Table 7, average inhibitory ED50 versus SDF1 and IL8 divided by average inhibitory ED50 versus MCP-1 and MIP1α): 1.5
